From patent publication EP4714939A1, “SULFONAMIDE COMPOUND, PREPARATION METHOD THEREFOR, AND PHARMACEUTICAL USE THEREOF” (Shenzhen Salubris Pharmaceuticals Co., Ltd., priority 2023, dated 2024) come the findings set out here.

Data set [1] concerns Lp(a). The data set is described as follows: In-vitro Lp(a) assembly assay (cell-free, sandwich ELISA). As to conditions: inhibition of Lp(a) formation; HepG2 and HEK293 (human Apo(a), 17 Kringle repeats) conditioned media, 37°C, 2 hours; 4-parameter curve. Type of data set: biochemical. How it is done: The capability of the compounds in the examples inhibiting the formation of Lp(a) particles in vitro was evaluated through cell-free assembly assay. After incubation at 37°C with 5% CO2 for 96 h, conditioned media (supplemented with 10% FBS, 20 mM HEPES, and 1 × penicillin/streptomycin DMEM) was collected from confluent wild-type HepG2 cells (source of endogenously expressed ApoB) and an HEK293 stable cell line expressing human Apo(a) protein containing 17 Kringle repeats (selected on 1 ug/ml puromycin). In-vitro assembly assay was performed by combining equal parts of HepG2 and HEK293 conditioned media with compounds under test added in a dilution series (final concentration being 0.03-1000 nM). A reaction was incubated at 37°C for 2 hours, and terminated by adding 6-aminocaproic acid (EACA) to a final concentration of 150 mM. Sandwich ELISA was used to detect Lp(a) using an anti-Apo(a) capture antibody (ab242565) and an HRP-conjugated anti-ApoB detection antibody (ab27622). ELISA was performed using TMB staining, and terminated with 1N sulfuric acid, and signals were read at 450 nm on an Envision 2104 plate reader. By setting an assembly reaction without inhibitors to 0% inhibition and an assembly reaction with the minimum amount of HepG2 conditioned medium (50-fold dilution) to 100% inhibition, the % inhibition of Lp(a) formed under each test condition was determined. Table 1 IC90 values of sulfonamide compounds
(In an ELISA, binding on a coated surface is turned into a signal by an enzyme label.)

The nature of data set [2]: in vivo. The note with it: cynomolgus monkey.
Text: (§1) Cynomolgus monkey: male, 3-6 kg, purchased from Guangzhou Huazhen biotechnology Co., Ltd. and Hainan Jingang Biotech Co., Ltd.
Data set [3] in a line: Pharmacokinetic experiment for monkeys. As to conditions: Cynomolgus monkey, 5 mg/kg, p.o.
Text: as §1

For orientation: IC90 means the concentration needed for an effect of 90%. A high value points to a need for much substance. One may read the AUC(0-t) as the area under the concentration-time curve up to a stated or last time point. Read a high AUC(0-t) as more exposure. Broadly, the half-life is the time needed for the level to fall by half in the phase considered. In general, Cmax refers to the maximum level reached in the sampled fluid or tissue.

In data set [1], `O=C(O)[C@@H](Cc1cccc(CN(Cc2cccc(C[C@H](C(=O)O)[C@H]3CCNC3)c2)S(=O)(=O)c2cccc(C[C@H](C(=O)O)[C@H]3CCNC3)c2)c1)[C@H]1CCNC1` [Compound 1] displayed a concentration for an effect of 90% (IC90) of 49.9 nM. In data set [2] (iv, 0.5 mg/kg), this compound had an AUC(0-t) of 41000 ng·h/mL and a half-life of 21 h.
`O=C(O)[C@@H](Cc1cccc(CN(CCc2ccccc2C[C@H](C(=O)O)[C@H]2CCNC2)S(=O)(=O)c2cccc(C[C@H](C(=O)O)[C@H]3CCNC3)c2)c1)[C@H]1CCNC1` [Compound 3] gave an IC90 in data set [1] of 61 nM. In data set [2] (iv, 0.5 mg/kg), the AUC(0-t) was found to be 33300 ng·h/mL and the half-life is 31.6 h.
In data set [1], `O=C(O)[C@@H](Cc1cccc(S(=O)(=O)N(Cc2ccc(F)c(C[C@H](C(=O)O)[C@H]3CCNC3)c2)Cc2ccc(F)c(C[C@H](C(=O)O)[C@H]3CCNC3)c2)c1)[C@H]1CCNC1` [Compound 9] returned an IC90 of 45.8 nM. In data set [2] (po, 5 mg/kg), the AUC(0-t) worked out at 22100 ng·h/mL and the Cmax turned out to be 1690 ng/mL. The same compound registered a F in data set [3] of 7.49%.
Take `O=C(O)[C@@H](Cc1cccc(CN(Cc2ccc(Cl)c(C[C@H](C(=O)O)[C@H]3CCNC3)c2)S(=O)(=O)c2ccc(F)c(C[C@H](C(=O)O)[C@H]3CCNC3)c2)c1)[C@H]1CCNC1` [Compound 39, (S)-3-(5-(N-(3-((S)-2-carboxyl-2-((R)-pyrrolid-3-yl)ethyl)-4-chlorobenzyl)-N-(3-((S)-2-carboxyl-2-((R)-pyrrolid-3-yl)ethyl)benzyl)aminosulfonyl)-2-fluorophenyl)-2-((R)-pyrrolid-3-yl)propanoic acid]: the IC90 in data set [1] was 24.9 nM.
Same read-out and setting: to `O=C(O)C(Cc1cccc(S(=O)(=O)N(Cc2ccc(Cl)c(CC(C(=O)O)C3CCNC3)c2)Cc2ccc(Cl)c(CC(C(=O)O)C3CCNC3)c2)c1)C1CCNC1` [Compound 40, (2S,2'S)-3,3'-(3-((S)-2-carboxyl-2-((R)-pyrrolid-3-yl)ethyl)phenyl)sulfonyl)azadiyl)dimethylenyl)bis(6-chloro-3,1-phenylenyl)bis(2-(R)-pyrrolid-3-yl)propanoic acid)] belongs 15.7 nM.
On the same count and under the same terms, to `O=C(O)C(Cc1cccc(S(=O)(=O)N(Cc2ccc(Cl)c(CC(C(=O)O)C3CCNC3)c2)Cc2ccc(Cl)c(CC(C(=O)O)C3CCNC3)c2)c1)C1CCNC1` [Compound 41, (2S,2'S)-3,3'-(3-((S)-2-carboxyl-2-((R)-pyrrolid-3-yl)ethyl)phenyl)sulfonyl)azadiyl)dimethylenyl)bis(6-chloro-3,1-phenylenyl)bis(2-(R)-pyrrolid-3-yl)propanoic acid)] belongs 38.1 nM.
Turning to `O=C(O)C(Cc1cc(S(=O)(=O)N(Cc2ccc(Cl)c(CC(C(=O)O)C3CCNC3)c2)Cc2ccc(Cl)c(CC(C(=O)O)C3CCNC3)c2)ccc1F)C1CCNC1` [Compound 42, (2S,2'S)-3,3'(3-((S)-2-carboxyl-2-(R)-pyrrolid-3-yl)ethyl)-4-fluorophenylsu lfonyl)azadiyl)dimethylenyl)bis(6-chloro-3,1-phenylenyl)bis(2-(R)-pyrrolid-3-yl)propanoic acid)], in data set [1], the IC90 is 25.1 nM.
